# Test results from patent US20250205256A1 (GH RESEARCH IRELAND LIMITED, priority 2022, published 2025).
# What was measured:
# [1] = system: patients with treatment-resistant major depressive disorder (TRD); test: Phase 1/2 clinical trial of inhaled 5-MeO-DMT in TRD: BPRS items; type: in vivo, human; details: for BPRS Emotional Withdrawal score: baseline 13
# Excerpt: (§1) Patients were assigned to different groups.
# The BPRS item that is of particular relevance to negative thinking is “guilt feelings”. This item relates to over concern or remorse for past behaviour. Possible scores are: • 1—No guilt feelings. • 2—Very Mild. Concerned about having failed someone or at something but not preoccupied. Can shift thoughts to other matters easily. • 3—Mild. Concerned about having failed someone or at something with some preoccupation. Tends to voice guilt to others. • 4—Moderate. Disproportionate preoccupation with guilt, having done wrong, injured others by doing or failing to do something, but can readily turn attention to other things. • 5—Moderately Severe. Preoccupation with guilt, having failed someone or at something, can turn attention to other things, but only with great effort. Not delusional. • 6—Severe; Delusional guilt or unreasonable self-reproach very out of proportion to circumstances. Moderate preoccupation present. • 7—Extremely Severe. Delusional guilt or unreasonable self-reproach grossly out of proportion to circumstances. Subject is very preoccupied with guilt and is likely to disclose to others or act on delusions.
# (§2) This trial was designed in two parts.
# [2] = system: patients with treatment-resistant major depressive disorder (TRD); test: Phase 1/2 clinical trial of inhaled 5-MeO-DMT in TRD: MADRS; type: in vivo, human; details: 12 mg n=4 sum; for MADRS Suicidal Thoughts score: baseline 8; for MADRS Inner Tension score: baseline 13
# Excerpt: as §1, §2
# [3] = 12 mg n=4 sum, 3 h after dose vs baseline
# [4] = 12 mg n=4 sum, Day 1 vs baseline
# [5] = 12 mg n=4 sum, Day 7 vs baseline
# [6] = IDR n=8 sum, 3 h after last dose vs baseline
structure (smiles),measurement,setting,value
COc1ccc2[nH]cc(CCN(C)C)c2c1 [5-MeO-DMT],BPRS Anxiety improvement,[1]; [3],14
same,BPRS Blunted Affect improvement,[1]; [3],3
same,BPRS Emotional Withdrawal improvement,[1]; [3],2
same,BPRS Guilt Feelings improvement,[1]; [3],9
same,BPRS Guilt Feelings percentage improvement,[1]; [3],50.00%
same,BPRS Tension improvement,[1]; [3],5
same,BPRS Blunted Affect score,"[1]; 12 mg n=4 sum, 3 h after dose, baseline 11",8
same,BPRS Emotional Withdrawal score,"[1]; 12 mg n=4 sum, 3 h after dose",11
same,BPRS Tension score,"[1]; 12 mg n=4 sum, 3 h after dose, baseline 14",9
same,BPRS Guilt Feelings score,"[1]; 12 mg n=4 sum, 3 h after dose, baseline 18",9
same,BPRS Anxiety score,"[1]; 12 mg n=4 sum, 3 h after dose, baseline 25",11
same,BPRS Blunted Affect score,"[1]; 12 mg n=4 sum, Day 1, baseline 11",6
same,BPRS Emotional Withdrawal score,"[1]; 12 mg n=4 sum, Day 1",8
same,BPRS Tension score,"[1]; 12 mg n=4 sum, Day 1, baseline 14",6
same,BPRS Guilt Feelings score,"[1]; 12 mg n=4 sum, Day 1, baseline 18",5
same,BPRS Anxiety score,"[1]; 12 mg n=4 sum, Day 1, baseline 25",6
same,BPRS Anxiety improvement,[1]; [4],19
same,BPRS Blunted Affect improvement,[1]; [4],5
same,BPRS Emotional Withdrawal improvement,[1]; [4],5
same,BPRS Guilt Feelings improvement,[1]; [4],13
same,BPRS Tension improvement,[1]; [4],8
same,BPRS Blunted Affect score,"[1]; 12 mg n=4 sum, Day 7, baseline 11",5
same,BPRS Emotional Withdrawal score,"[1]; 12 mg n=4 sum, Day 7",6
same,BPRS Tension score,"[1]; 12 mg n=4 sum, Day 7, baseline 14",6
same,BPRS Guilt Feelings score,"[1]; 12 mg n=4 sum, Day 7, baseline 18",5
same,BPRS Anxiety score,"[1]; 12 mg n=4 sum, Day 7, baseline 25",6
same,BPRS Anxiety improvement,[1]; [5],19
same,BPRS Blunted Affect improvement,[1]; [5],6
same,BPRS Emotional Withdrawal improvement,[1]; [5],7
same,BPRS Guilt Feelings improvement,[1]; [5],13
same,BPRS Tension improvement,[1]; [5],8
same,BPRS Anxiety improvement,[1]; [6],18
same,BPRS Blunted Affect improvement,[1]; [6],4
same,BPRS Emotional Withdrawal improvement,[1]; [6],5
same,BPRS Guilt Feelings improvement,[1]; [6],20
same,BPRS Tension improvement,[1]; [6],5
same,BPRS Emotional Withdrawal score,"[1]; IDR n=8 sum, 3 h after last dose",8
same,BPRS Blunted Affect score,"[1]; IDR n=8 sum, 3 h after last dose, baseline 15",11
same,BPRS Tension score,"[1]; IDR n=8 sum, 3 h after last dose, baseline 16",11
same,BPRS Guilt Feelings score,"[1]; IDR n=8 sum, 3 h after last dose, baseline 34",14
same,BPRS Anxiety score,"[1]; IDR n=8 sum, 3 h after last dose, baseline 37",19
same,BPRS Emotional Withdrawal score,"[1]; IDR n=8 sum, Day 1",8
same,BPRS Blunted Affect score,"[1]; IDR n=8 sum, Day 1, baseline 15",8
same,BPRS Tension score,"[1]; IDR n=8 sum, Day 1, baseline 16",11
same,BPRS Guilt Feelings score,"[1]; IDR n=8 sum, Day 1, baseline 34",11
same,BPRS Anxiety score,"[1]; IDR n=8 sum, Day 1, baseline 37",16
same,BPRS Anxiety improvement,"[1]; IDR n=8 sum, Day 1 vs baseline",21
same,BPRS Blunted Affect improvement,"[1]; IDR n=8 sum, Day 1 vs baseline",7
same,BPRS Emotional Withdrawal improvement,"[1]; IDR n=8 sum, Day 1 vs baseline",5
same,BPRS Guilt Feelings improvement,"[1]; IDR n=8 sum, Day 1 vs baseline",23
same,BPRS Tension improvement,"[1]; IDR n=8 sum, Day 1 vs baseline",5
same,BPRS Emotional Withdrawal score,"[1]; IDR n=8 sum, Day 7",8
same,BPRS Blunted Affect score,"[1]; IDR n=8 sum, Day 7, baseline 15",8
same,BPRS Tension score,"[1]; IDR n=8 sum, Day 7, baseline 16",10
same,BPRS Guilt Feelings score,"[1]; IDR n=8 sum, Day 7, baseline 34",10
same,BPRS Anxiety score,"[1]; IDR n=8 sum, Day 7, baseline 37",17
same,BPRS Anxiety improvement,"[1]; IDR n=8 sum, Day 7 vs baseline",20
same,BPRS Blunted Affect improvement,"[1]; IDR n=8 sum, Day 7 vs baseline",7
same,BPRS Emotional Withdrawal improvement,"[1]; IDR n=8 sum, Day 7 vs baseline",5
same,BPRS Guilt Feelings improvement,"[1]; IDR n=8 sum, Day 7 vs baseline",24
same,BPRS Tension improvement,"[1]; IDR n=8 sum, Day 7 vs baseline",6
same,MADRS Concentration Difficulties improvement,[2]; 2 h after dose vs baseline,9
same,MADRS Inability to Feel improvement,[2]; 2 h after dose vs baseline,7
same,MADRS Inner Tension improvement,[2]; 2 h after dose vs baseline,11
same,MADRS Lassitude improvement,[2]; 2 h after dose vs baseline,6
same,MADRS Pessimistic Thoughts improvement,[2]; 2 h after dose vs baseline,8
same,MADRS Pessimistic Thoughts percentage improvement,[2]; 2 h after dose vs baseline,50.00%
same,MADRS Suicidal Thoughts improvement,[2]; 2 h after dose vs baseline,5
same,MADRS Suicidal Thoughts score,[2]; 2 h after dose,3
same,MADRS Inner Tension score,[2]; 2 h after dose,2
same,MADRS Concentration Difficulties score,"[2]; 2 h after dose, baseline 16",7
same,MADRS Inability to Feel score,"[2]; 2 h after dose, baseline 16",9
same,MADRS Lassitude score,"[2]; 2 h after dose, baseline 16",10
same,MADRS Pessimistic Thoughts score,"[2]; 2 h after dose, baseline 16",8
same,MADRS Suicidal Thoughts score,[2]; Day 1,5
same,MADRS Reduced Sleep score,"[2]; Day 1, baseline 12",10
same,MADRS Inner Tension score,[2]; Day 1,3
